Experimental findings from patent US20260042747A1, “KIT INHIBITORS, COMPOUNDS, PHARMACEUTICAL COMPOSITIONS, AND METHODS OF USE THEREOF” (Alivexis, Inc., priority 2022, published 2026) are described below.

pIC50: −log10 of the molar value. Structures can show the parent of a compound that is named as a salt. Where two headings read alike, the source gives them in different places.

One assay relates to M-07e cells. In words: SCF-dependent M-07e cell proliferation assay. As to conditions: SCF-dependent M-07e cell proliferation, 3 days, CellTiter Glo, read-out: M-07e IC50. Type of assay: cell-based, human. On the procedure:
SCF-dependent cell proliferation assay was developed to measure the inhibitory potency of the compounds in M-07e cells, which express wild-type human KIT protein. The assay was performed in 96-well plates and the IC50 of each KIT inhibitor was determined by CellTiter Glo Assay reagent and Victor X5 Multilabel Counter (Perkin Elmer).
M-07e cells were purchased from AcceGen Biotechnology. Cells were maintained with M-07e Growth medium: RPMI-1640 containing 20% FBS, 100 U/mL penicillin and 100 microgram/mL streptomycin, 10 ng/mL rhGM-CSF, 10 ng/mL rhSCF. M-07e cells were seeded at a density of 5000 cells/90 μL/well in 96-well plates. Test compounds were dissolved in 100% DMSO to make 20 mM stock solution and serially diluted 1:3 with 100% DMSO to make an 11-point dilution series with concen-trations from […] to 0.024 μM. The serially diluted compounds were then each diluted 1:50 with culture medium to obtain assay compound solutions containing 2% DMSO. Ten μL of assay compound solutions were added to the 90 μL of culture cell suspension in the 96-well plate, with a final DMSO concentration of 0.2%. The plates were then incubated in a 5% CO2 incubator at 37° C. for 3 days. To obtain Day Zero Controls for background calculation, cells were seeded at 5000 cells/100 μL in a new 96-well plate and processed on the same day. Both Day Zero controls and 3 day culture plates were then treated as follows. 100 μL of CellTiter Glo Assay reagent was added to each well and the plate was incubated at room temperature for 15 min on a shaker at 200-300 RPM. Then 100 μL of cell lysate samples were transferred to white wall 96-well plates and luminescence was measured by a plate reader. The luminescence of Day Zero Control was subtracted from the luminescence intensity of 3 day culture readings. The assay control for this experiment was cells treated with 0.2% DMSO in culture medium and wells with 100 μL of culture medium (0.2% DMSO without cells) were used as the blank for data analysis.
The IC50 value of each compound was determined by using % inhibition by nor-malizing inhibition in DMSO treated control wells to 0% using the following formula method: […]
Plot percent inhibition in proliferation of triplicates against the respective concen-trations of compound and fit the dose response curve using the sigmoidal dose response equation to generate the IC50 in GraphPad Prism 8 software.
(In general: ATP-based viability assays read luminescence as a measure of living cells.)

For assay [1], the target named is recombinant human KIT tyrosine kinase protein (Homo sapiens (Human), UniProt P10721). The assay is described as follows: KIT tyrosine kinase assay (ADP-Glo). Type of assay: biochemical. On the procedure: An in vitro assay utilizing the recombinant human KIT tyrosine kinase protein was developed to measure compound inhibition of KIT. KIT tyrosine kinase activity was measured by the ADP-Glo Kinase Assay system with poly […]) peptide substrate. Kinase Assay was performed in white 384-well plates and the luminescence was measured by Victor X5 Multilabel Counter (Perkin Elmer). Recombinant intracellular domain of human KIT protein was purchased from Carna Biosciences (Kobe, Japan). Poly […]) peptide was purchased from Sigma-Aldrich (St. Louis, Missouri, USA). ADP-Glo Kinase Assay reagent was purchased from Promega (Madison, Wisconsin, USA). Each test compound was dissolved in 100% DMSO to prepare 10 mM stock solutions. […] After the preincubation, 3 μL of substrate/ATP mixture was added and incubated for 1 hour at room temperature. The tyrosine phosphorylation by KIT kinase was quantified by ADP-Glo kinase assay kit following the manufacturer's protocol. Briefly, the phosphorylation reaction was terminated by adding 10 μL ADP-Glo reagent and incubated for 60 minutes at room temperature. 20 μL of Kinase Detection Reagent was added to each well and luminescence was measured by plate reader. […] Half maximal inhibitory concentration (IC50) was calculated by a Four […] Logistic Regression model using GraphPad Prism (GraphPad Software). The value without recombinant KIT protein and without test compound was used as a negative control (assay background).
Chain of recombinant human KIT tyrosine kinase protein (P10721 546-976): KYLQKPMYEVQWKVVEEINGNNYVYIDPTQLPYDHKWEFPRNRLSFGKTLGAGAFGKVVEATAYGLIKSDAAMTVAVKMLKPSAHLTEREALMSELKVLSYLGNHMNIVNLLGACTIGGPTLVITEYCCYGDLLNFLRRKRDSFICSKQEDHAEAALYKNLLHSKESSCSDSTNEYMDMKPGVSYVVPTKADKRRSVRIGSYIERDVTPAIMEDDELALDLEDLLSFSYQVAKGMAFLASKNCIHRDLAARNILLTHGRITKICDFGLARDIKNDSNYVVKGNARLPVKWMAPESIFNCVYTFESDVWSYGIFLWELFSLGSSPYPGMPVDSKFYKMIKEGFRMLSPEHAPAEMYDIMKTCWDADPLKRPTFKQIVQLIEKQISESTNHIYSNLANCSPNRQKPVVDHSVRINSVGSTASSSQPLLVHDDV
On the technique in general: ADP-Glo first removes unused ATP, then detects ADP through luciferase.

Broadly, the pIC50 is the negative decadic logarithm of the IC50, by convention in mol/L. For the molecule `[2H]C([2H])([2H])n1c(=O)[nH]c2cc(C(=O)NCc3ccc(N(C)[C@H]4C[C@@H](C(F)(F)F)C4)nc3)ccc21` (relative stereo) [Example 116, 1-(Trideuteromethyl)-N-((6-(methyl(cis-3-(trifluoromethyl)cyclobutyl)amino)pyridin-3-yl)methyl)-2-oxo-2,3-dihydro-1H-benzimidazole-5-carboxamide], the pIC50 with M-07e cells (Homo sapiens, M-07e, 72 h) was 7.55; in assay [1] (Table 99), 7.54.

For `CC(c1ccccc1)N(C)c1ccc(CNC(=O)c2ccc3c(c2)[nH]c(=O)n3C)cn1` (single isomer, unassigned) [82 Peak 1], the pIC50 with M-07e cells was 5.20; in assay [1] (Table 98), 6.74.

For `CC(c1ccccc1)N(C)c1ccc(CNC(=O)c2ccc3c(c2)[nH]c(=O)n3C)cn1` (single isomer, unassigned) [82 Peak 2], the pIC50 with M-07e cells was 6.21; in assay [1] (Table 98), 7.54.

For `CN(c1ccc(CNC(=O)c2ccc3c(c2)[nH]c(=O)n3C)cn1)C1CC(OC(F)F)C1` (single isomer, unassigned) [106 Isomer I, N-((6-((3-(Difluoromethoxy)cyclobutyl)(methyl)amino)pyridin-3-yl)methyl)-1-methyl-2-oxo-2,3-dihydro-1H-benzimidazole-5-carboxamide], the pIC50 is 7.82 in the assay with M-07e cells and 7.44 in assay [1] (Table 99).

Regarding `CN(c1ccc(CNC(=O)c2ccc3c(c2)[nH]c(=O)n3C)cn1)C1CC(OC(F)F)C1` (single isomer, unassigned) [106 Isomer II, N-((6-((3-(Difluoromethoxy)cyclobutyl)(methyl)amino)pyridin-3-yl)methyl)-1-methyl-2-oxo-2,3-dihydro-1H-benzimidazole-5-carboxamide], the pIC50 with M-07e cells was 7.05; in assay [1] (Table 99) it was 7.66.

For `CN(c1ccc(CNC(=O)c2ccc3c(c2)[nH]c(=O)n3C)cn1)C1CC(OC(F)(F)F)C1` (single isomer, unassigned) [107 Isomer I, 1-Methyl-N-((6-(methyl(3-(trifluoromethoxy)cyclobutyl)amino)pyridin-3-yl)methyl)-2-oxo-2,3-dihydro-1H-benzimidazole-5-carboxamide], the pIC50 with M-07e cells was 7.33; in assay [1] (Table 99), 7.74.

On to `CN(c1ccc(CNC(=O)c2ccc3c(c2)[nH]c(=O)n3C)cn1)C1CC(OC(F)(F)F)C1` (single isomer, unassigned) [107 Isomer II, 1-Methyl-N-((6-(methyl(3-(trifluoromethoxy)cyclobutyl)amino)pyridin-3-yl)methyl)-2-oxo-2,3-dihydro-1H-benzimidazole-5-carboxamide], for which the pIC50 in the assay on M-07e cells was 6.54; in assay [1] (Table 99), 7.55.

`CC(NC(=O)c1ccc2c(c1)[nH]c(=O)n2C)c1ccc(N(C)C(C)C)nc1` (single isomer, unassigned) [130 Peak 1]: the pIC50 is 6.21 in the assay with M-07e cells (Homo sapiens, M-07e, 72 h) and 7.10 in assay [1] (Table 99).

Turning to `CC(NC(=O)c1ccc2c(c1)[nH]c(=O)n2C)c1ccc(Oc2ccc(F)cc2)nc1` (single isomer, unassigned) [Compound 6 Peak 1, N-(1-(6-(4-Fluorophenoxy)pyridin-3-yl)ethyl)-1-methyl-2-oxo-2,3-dihydro-1H-benzimid azole-5-carboxamide], the pIC50 in the assay on M-07e cells (Homo sapiens, M-07e, 72 h) is 6.17.

Turning to `Cn1c(=O)[nH]c2cc(C(=O)NCc3ccc(Oc4ccccc4F)nc3)c(F)cc21` [Compound 3, 6-Fluoro-N-((6-(2-fluorophenoxy)pyridin-3-yl)methyl)-1-methyl-2-oxo-2,3-dihydro-1H-benzimidazole-5-carboxamide trifluoroacetate], the pIC50 is 6.74 with M-07e cells (Homo sapiens, M-07e, 72 h) and 7.59 in assay [1] (Table 98).

For the molecule `Cn1c(=O)[nH]c2cc(C(=O)NCc3ccc(Oc4ccc(F)cc4F)nc3)ccc21` [Compound 4, N-((6-(2,4-Difluorophenoxy)pyridin-3-yl)methyl)-1-methyl-2-oxo-2,3-dihydro-1H-benzi midazole-5-carboxamide], the negative-log IC50 (pIC50) is 6.42 in the assay with M-07e cells (Homo sapiens, M-07e, 72 h) and 7.68 in assay [1] (Table 98).

`CN(c1ccc(F)cc1)c1ccc(CNC(=O)c2ccc3c(c2)[nH]c(=O)n3C)cn1` [Compound 9, N-((6-((4-Fluorophenyl)(methyl)amino)pyridin-3-yl)methyl)-1-methyl-2-oxo-2,3-dihydro-1H-benzimidazole-5-carboxamide trifluoroacetate]: the pIC50 is 6.21 in the assay with M-07e cells (Homo sapiens, M-07e, 72 h) and 7.47 in assay [1] (Table 98).

Turning to `CN(c1ccc(CNC(=O)c2ccc3c(c2)[nH]c(=O)n3C)cn1)C1CCC(F)(F)CC1` [Compound 10, N-((6-((4,4-Difluorocyclohexyl)(methyl)amino)pyridin-3-yl)methyl)-1-methyl-2-oxo-2,3-dihydro-1H-benzimidazole-5-carboxamide], the pIC50 in the assay on M-07e cells (Homo sapiens, M-07e, 72 h) is 6.62.

As for `C[C@H](NC(=O)c1ccc2c(c1)[nH]c(=O)n2C)c1ccc(N(C)c2ccccc2F)nc1` [Example 88], the pIC50 in assay [1] (Table 98) was 7.01.

For `CN(Cc1ccccc1)c1ncc(CNC(=O)c2ccc3c(c2)[nH]c(=O)n3C)s1` [Example 91], the pIC50 in assay [1] (Table 98) was 6.92.

As to `CN(CC1CC(F)(F)C1)c1ncc(CNC(=O)c2ccc3c(c2)[nH]c(=O)n3C)s1` [Example 93], the pIC50 in assay [1] (Table 98) is 6.57.

`CC(C)N(C)c1cnc(CNC(=O)c2ccc3c(c2)[nH]c(=O)n3C)cn1` [Example 94]: the pIC50 in assay [1] (Table 98) was 6.92.

As for `Cn1c(=O)[nH]c2cc(C(=O)NCc3cnc4c(c3)ncn4-c3ccccc3F)ccc21` [Example 101], the pIC50 in assay [1] (Table 98) was 5.48.

In the case of `CC(c1ccc(CNC(=O)c2ccc3c(c2)[nH]c(=O)n3C)cn1)N1CCC(C(F)(F)F)C1` (stereo not drawn) [Example 112, 1-Methyl-2-oxo-N-((6-(1-(3-(trifluoromethyl)pyrrolidin-1-yl)ethyl)pyridin-3-yl)methyl)-2,3-dihydro-1H-benzimidazole-5-carboxamide], in assay [1] (@10 uM), the “KIT % at single concentration (printed in KIT IC50 column)” value is on record as 59%@10 uM.

As for `CC(C)N(C)c1ccc(C(NC(=O)c2ccc3c(c2)[nH]c(=O)n3C)c2ccccc2)cn1` (stereo not drawn) [Example 113, N-((6-(Isopropyl(methyl)amino)pyridin-3-yl)(phenyl)methyl)-1-methyl-2-oxo-2,3-dihydr o-1H-benzimidazole-5-carboxamide], the pIC50 in assay [1] (Table 99) is 5.70.

Turning to `COC(=O)C(NC(=O)c1ccc2c(c1)[nH]c(=O)n2C)c1ccc(N(C)C(C)C)nc1` (stereo not drawn) [Example 114a, Methyl 2-(6-(isopropyl(methyl)amino)pyridin-3-yl)-2-(1-methyl-2-oxo-2,3-dihydro-1H-benzimidazole-5-carboxamido)acetate], the negative-log IC50 (pIC50) in assay [1] (Table 99) is 6.97.

For `CC(C)N(C)c1ccc(C(CO)NC(=O)c2ccc3c(c2)[nH]c(=O)n3C)cn1` (stereo not drawn) [Example 114b, N-(2-hydroxy-1-(6-(Isopropyl(methyl)amino)pyridin-3-yl)ethyl)-1-methyl-2-oxo-2,3-dih ydro-1H-benzimidazole-5-carboxamide], the pIC50 in assay [1] (Table 99) was 6.50.

For `CC(C)Oc1ccc(CNC(=O)c2ccc3c(c2)[nH]c(=O)n3C)cn1` [Example 117], the negative logarithm of the IC50 (pIC50) in assay [1] (Table 99) is 6.56.

On to `Cn1c(=O)[nH]c2cc(C(=O)NCc3ccc(OC4CC(F)(F)C4)nc3)ccc21` [Example 118], for which, in assay [1] (Table 99), the negative-log IC50 (pIC50) was 6.20.

In the case of `CN(c1ccc(CNC(=O)c2ccc3c(c2)[nH]c(=O)n3C)cn1)C1CCC2(CC1)COC2` [Example 123], in assay [1] (Table 99), the pIC50 was 6.90.

With `CN(c1ccc(CNC(=O)c2ccc3[nH]c(=O)[nH]c3c2)cn1)C1CCC(F)(F)CC1` [Example 128], the pIC50 in the assay on M-07e cells (Homo sapiens, M-07e, 72 h) was 5.55.

As to `Cn1c(=O)[nH]c2cc(C(=O)NCc3ccc(NC4CCC(F)(F)CC4)nc3)ccc21` [Example 132], the pIC50 in assay [1] (Table 99) was 6.88.

As to `CC(CO)N(C)c1ccc(CNC(=O)c2ccc3c(c2)[nH]c(=O)n3C)cn1` (stereo not drawn) [Example 133], the negative logarithm of the IC50 (pIC50) in assay [1] (Table 99) was 7.12.
